Laboratory results taken from patent US20240317741A1, “NAPHTHYRIDINE DERIVATIVE AS ATR INHIBITOR AND METHOD FOR PREPARING SAME” (WIGEN BIOMEDICINE TECHNOLOGY (SHANGHAI) CO., LTD., priority 2021, published 2024).

How the values were obtained:
MIA PaCa-2 cells [1] = assay: In-vitro anti-proliferative activity against MIA PaCa-2 cells; type: cell-based; settings: Homo sapiens, 72 h after dosing, intracellular ATP content
Method: (§1) MIA PaCa-2 cells were seeded on a 384-well plate at 3000 cells/well. After overnight adherence culture, DMSO or the compounds serially diluted 1:5 from 5 μM were added. […] The inhibition percentage of viable cells by the compounds was calculated by comparing with the DMSO group, and the IC50 value was calculated.

MIA PaCa-2 cells [2] = assay: In-vitro anti-proliferative activity in combination with gemcitabine against MIA PaCa-2 cells; type: cell-based; settings: in combination with 20 nM gemcitabine, 72 h after dosing
Method: as §1, with “cells/well, and 20 nM gemcitabine was added.” for “cells/well.”, “100 nM” for “5 μM”

[3] = Liver microsomal stability (human); type: in vitro ADME; settings: human liver microsomes, 1 μM compound, NADPH regeneration system, 37° C.; read-out: T1/2 (min) Human
Method: (§2) After 1 μM compound was incubated with 500 µg/mL of human or mouse liver microsomes and a NADPH regeneration system at 37° C. for different times, respectively, LC-MS-MS was used to analyze the remaining amount of the compound and calculate T1/2.

[4] = Liver microsomal stability (mouse); type: in vitro ADME; settings: mouse liver microsomes, 1 μM compound, NADPH regeneration system, 37° C.; read-out: T1/2 (min) Mouse
Method: as §2

[5] = test system: Human colon cancer LOVO cells; assay: In vivo efficacy in LoVo model; design: species or system nude mouse; settings: LoVo model in nude mice, 20 mpk BID PO, days 1-3, 8-10, 15-17 and day 21
Method: After being subcultured, the cells were collected when they reached the desired amount. 1×10^7 LOVO cells were injected into the left dorsal side of each nude mouse, and the animals were randomly grouped for administration after tumors grew to 100-200 mm^3. The groups were as follows: a solvent control group of 8 mice and a compound group of 8 mice. The compounds were administered orally 3 days a week and interrupted for 4 days, for 21 consecutive days. The vehicle was a 0.5% MC suspension containing 1% tween-80. On Tuesday and Thursday each week, tumor volumes and body weight of the mice were measured, and the nude mice were sacrificed on day 21 after the administration. […] The toxicity of the compounds was evaluated according to the body weight of the mice.

[6] = In vivo pharmacokinetic experiment in mice; design: species or system CD-1 female mice; settings: female, CD-1, mouse, plasma; for Cmax: read-out: Cmax; for Tmax: read-out: Tmax; for Vd: read-out: Vdss
Method: CD-1 female mice aged 7 to 10 weeks were intravenously administered and orally administered at a dose of 2 mg/kg and 10 mg/kg, respectively. The mice were fasted for at least 12 h before the administration and given food 4 h after the administration, and they were given ad libitum access to water during the experiment.
On the day of the experiment, animals in the intravenous group were administered the corresponding compound by single injection via the tail vein at an administration volume of 10 mL/kg, and animals in the oral group were administered the corresponding compound by single intragastric injection at an administration volume of 10 mL/kg. The animals were weighed before administration, and the administration volume was calculated according to the body weight. The sample collection time was 0.083 h, 0.167 h, 0.5 h, 1 h, 2 h, 4 h, 8 h and 24 h. About 200 μL of whole blood was collected through the orbital venous plexus at each time point and used to prepare plasma for concentration determination by high performance liquid chromatography-tandem mass spectrometry (LC-MS/MS). The plasma concentrations were processed using a non-compartmental model of Winnolin pharmacokinetic software, and the pharmacokinetic parameters were calculated using a linear-log trapezoidal method.

[7] = Pharmacokinetic evaluation in rats; type: in vivo, SD female rats; settings: female, SD, rat, plasma
Method: SPF-grade SD female rats aged 7 to 10 weeks were intravenously administered and orally administered at a dose of 1 mg/kg and 10 mg/kg, respectively. The rats were fasted for at least 12 h before the administration and given food 4 h after the administration, and they were given ad libitum access to water during the experiment.
On the day of the experiment, animals in the intravenous group were administered the corresponding compound by single injection via the tail vein at an administration volume of 2 mL/kg, and animals in the oral group were administered the corresponding compound by single intragastric injection at an administration volume of 10 mL/kg. The animals were weighed before administration, and the administration volume was calculated according to the body weight. The sample collection time was 0.083 h (only intravenous group), 0.125 h (only oral group), 0.25 h, 0.5 h, 1 h, 2 h, 4 h, 6 h, 8 h and 24 h. About 200 μL of whole blood (EDTA-K2 anticoagulated) was collected via the jugular vein or other suitable vein at each time point and used to prepare plasma for concentration determination by high performance liquid chromatography-tandem mass spectrometry (LC-MS/MS). All animals were suffocated by CO2 after the PK samples were collected at the last time point. The plasma concentrations were processed using a non-compartmental model of Winnolin™ version 8.2 (Pharsight, mountain View, CA) pharmacokinetic software, and the pharmacokinetic parameters were calculated using a linear-log trapezoidal method.

[8] = test system: Human colon cancer HT29 cells; assay: In vivo efficacy in HT-29 model, alone and with gemcitabine; design: species or system nude mouse; settings: HT-29 model in nude mice, day 21
Method: After being subcultured, the cells were collected when they reached the desired amount. 1×10^7 HT29 cells were injected into the left dorsal side of each nude mouse, and the animals were randomly grouped for administration after tumors grew to 100-200 mm^3. The groups were as follows: a solvent control group of 6 mice, a single drug group of 15 mg/kg gemcitabine (GMC), and a combination group of 15 mg/kg gemcitabine and a compound. Gemcitabine was administered intraperitoneally with PBS as a vehicle once a week. The compounds were administered 3 days a week and interrupted for 4 days (3 on/4 off), for 21 consecutive days, and the vehicle was a 0.5% MC suspension containing 1% tween-80. On Tuesday and Thursday each week, tumor volumes and body weight of the mice were measured, and the nude mice were sacrificed on day 21 after the administration. […] The toxicity of the compounds was evaluated according to the body weight of the mice.

[9] = compound 20 mpk BID PO 3 on/4 off + GMC 15 mpk QW IP
[10] = single agent, 20 mpk BID PO, 3on/4off

| Structure (SMILES) | IC50 (MIA PaCa-2 cells [1]) [nM] | IC50 (MIA PaCa-2 cells [2]) [nM] | half-life at 1 μM [3] [min] | half-life at 1 μM [4] [min] | AUC(0-t) ([6]; Oral administration (10 mg/kg)) [ng·h/mL] | bioavailability ([6]; Oral administration (10 mg/kg)) [%] | half-life ([6]; Oral administration (10 mg/kg)) [min] | Cmax ([6]; Oral administration (10 mg/kg)) [ng/mL] | Tmax ([6]; Oral administration (10 mg/kg)) [min] | AUC(0-t) ([6]; iv, Injection (2 mg/kg)) [ng·h/mL] | clearance ([6]; iv, Injection (2 mg/kg)) [mL/min/kg] | half-life ([6]; iv, Injection (2 mg/kg)) [min] | Vd ([6]; iv, Injection (2 mg/kg)) [L/kg] | TGI(%) [5] [%] | TGI(%) [8, 9] [%] | TGI(%) [8, 10] [%] | also measured |
| --- | --- | --- | --- | --- | --- | --- | --- | --- | --- | --- | --- | --- | --- | --- | --- | --- | --- |
| C[C@@H]1COCCN1c1cc(C2(C#N)CCCC2)c2ccnc(-c3ccn[nH]3)c2n1 [Compound 27] | 1000 to 5000 | 1.48 | 27.2 | 9.14 |  |  |  |  |  |  |  |  |  | 62.7 |  |  |  |
| C[C@@H]1COCCN1c1cc(C2(C#N)CCN(C)CC2)c2ccnc(-c3ccn[nH]3)c2n1 [Compound 43] | < 1000 | 1.24 | 9.44 | 18.9 | 439 | 35.5 | 47.4 | 616 | 15 | 247 | 135 | 13.2 | 1.79 | 75.3 | 84.4 | 51.2 |  |
| C[C@@H]1COCCN1c1cc(C2(C#N)CCN(C3CCCC3)CC2)c2ccnc(-c3ccn[nH]3)c2n1 [Compound 69] | < 1000 |  | 5.9 | 7.52 |  |  |  |  |  |  |  |  |  |  |  |  |  |
| COCCC(C#N)c1cc(N2CCOC[C@H]2C)nc2c(-c3ccn[nH]3)nccc12 (stereo partly shown) [Compound 10] | 1000 to 5000 |  |  |  |  |  |  |  |  |  |  |  |  |  |  |  |  |

The next lines start with results.

| IC50 (MIA PaCa-2 cells [1]) [nM] | IC50 (MIA PaCa-2 cells [2]) [nM] | half-life at 1 μM [3] [min] | half-life at 1 μM [4] [min] | AUC(0-t) ([6]; Oral administration (10 mg/kg)) [ng·h/mL] | bioavailability ([6]; Oral administration (10 mg/kg)) [%] | half-life ([6]; Oral administration (10 mg/kg)) [min] | Cmax ([6]; Oral administration (10 mg/kg)) [ng/mL] | Tmax ([6]; Oral administration (10 mg/kg)) [min] | AUC(0-t) ([6]; iv, Injection (2 mg/kg)) [ng·h/mL] | clearance ([6]; iv, Injection (2 mg/kg)) [mL/min/kg] | half-life ([6]; iv, Injection (2 mg/kg)) [min] | Vd ([6]; iv, Injection (2 mg/kg)) [L/kg] | Structure (SMILES) | TGI(%) [5] [%] | TGI(%) [8, 9] [%] | TGI(%) [8, 10] [%] | also measured |
| --- | --- | --- | --- | --- | --- | --- | --- | --- | --- | --- | --- | --- | --- | --- | --- | --- | --- |
| < 1000 | 1.5 | 51.4 | 8.68 | 3300 | 34.5 | 46.8 | 1720 | 30 | 1920 | 17.4 | 40.2 | 0.58 | C[C@@H]1COCCN1c1cc(C2(C#N)CCOCC2)c2ccnc(-c3ccn[nH]3)c2n1 [Compound 29] | 83.2 | 85.3 | 49.9 | AUC(0-t) ([7]; Oral administration (10 mg/kg)): 8030 ng·h/mL; bioavailability ([7]; Oral administration (10 mg/kg)): 120%; half-life ([7]; Oral administration (10 mg/kg)): 171 min; Cmax ([7]; Oral administration (10 mg/kg), read-out: Cmax): 1550 ng/mL; Tmax ([7]; Oral administration (10 mg/kg), read-out: Tmax): 60 min; AUC(0-t) ([7]; iv, Injection (1 mg/kg)): 669 ng·h/mL; clearance ([7]; iv, Injection (1 mg/kg)): 24.9 mL/min/kg; half-life ([7]; iv, Injection (1 mg/kg)): 103 min; Vd ([7]; iv, Injection (1 mg/kg), read-out: Vdss): 3 L/kg |
| < 1000 | 1.08 | 632 | 19.6 | 937 | 31.8 | 41.4 | 1010 | 30 | 588 | 56.6 | 96.6 | 1.27 | C[C@@H]1COCCN1c1cc(C2(C#N)CCC(O)CC2)c2ccnc(-c3ccn[nH]3)c2n1 (stereo partly drawn) [Compound 33, (R)-4-hydroxy-1-(2-(3-methylmorpholine)-8-(1H-pyrazol-5-yl)-1,7-naphthyridin-4-yl)cyclohexane-1-carbonitrile] | 79.1 | 82.3 | 57.4 |  |
| < 1000 |  | 24.8 | 7.78 | 669 | 30.2 | 87 | 299 | 30 | 444 | 75.1 | 16.2 | 1.61 | COC1CCC(C#N)(c2cc(N3CCOC[C@H]3C)nc3c(-c4ccn[nH]4)nccc23)CC1 (stereo partly drawn) [Compound 53, (R)-4-methoxy-1-(2-(3-methylmorpholine)-8-(1H-pyrazol-5-yl)-1,7-naphthyridin-4-yl)cyclohexane-1-carbonitrile] |  |  |  |  |
| < 1000 | 0.624 | 61.4 | 52.4 |  |  |  |  |  |  |  |  |  | C[C@@H]1COCCN1c1cc(C2(C#N)CCC(N(C)C)CC2)c2ccnc(-c3ccn[nH]3)c2n1 (stereo partly drawn) [Compound 34, (R)-4-(dimethylamino)-1-(2-(3-methylmorpholine)-8-(1H-pyrazol-5-yl)-1,7-naphthyridin-4-yl)cyclohexane-1-carbonitrile] | 81.4 | 78.1 | 58.3 |  |
